System: immature and mature cell markers in SU60 xenograft tumor cells
Assay: single cell gene expression analysis (RT-qPCR) of SU60 xenograft tumors
Type: in vivo
Settings: treated vs vehicle
From the text: FIG. 22 illustrates the heatmap representation of single cells gene expression analysis (RT-qPCR) from SU60 xenograft tumors treated with vehicle control or Compound 1. A) Heatmap representation of single cells gene expression analysis (RT-qPCR) from SU60 xenograft tumors treated with vehicle control or Compound 1. Gene expression levels are colored-coded with red for high expression, green low expression and gray not expressed. Three clusters of cells were identified based on shared patterns of gene expression using a gene-set of immature and mature cell markers. […] The top dendrogram clusters genes with similar expression pattern across all cells. Gene expression (in Ct values) was mean-centered at 0 and divided by 2.5 time the standard deviation. B) This graph represents the total number of vehicle-treated and compound 1 treated cells within each cluster. P-values (Fisher's exact test) are represented on top of the bars.
Vehicle control and Compound 1-treated samples were characterized by single cell transcriptional profiling with a gene-set designed to discriminate immature colon progenitor cells and more mature cell-types (Dalerba, 2011). […] Using hierarchical clustering analysis, three clusters based on expression of a subset of immature and mature cell markers were identified. […]

**Q.** Which “change in the proportion of progenitor-like cells” value (p=0.01) does the source give for `CC(C)c1ccc(N(C)c2ccc3c(c2)OCC[C@H]3CNc2cnccc2C(=O)O)cc1` [Compound 1, 3-({[(4R)-7-{methyl[4-(propan-2-yl)phenyl]amino}-3,4-dihydro-2H-1-benzopyran-4-yl]methyl}amino)pyridine-4-carboxylic acid] here?
**A.** Its value is “significant reduction”.

**Q.** And the “change in number of intermediate-like and differentiated-like cells” value (p=0.07)?
**A.** Its value is “increase was not significant”.

Source: patent US20250025451A1, “TREATMENT OF CANCER WITH KDM4 INHIBITORS” (Celgene Corporation, priority 2021, published 2025)
